Values quoted from earlier work, collected in patent publication US10328040B2, “Therapeutic methods” (ARIZONA BOARD OF REGENTS ON BEHALF OF ARIZONA STATE …, priority 2014, dated 2019).

Columns and labels:
[1] = system: rat model of Parkinson's disease; conditions: low dose
hRXRβ = hRXRβ (Homo sapiens, UniProt P28702); conditions: read-out: EC50 for the hRXRβ isoform
RXR γ = conditions: CV-1 cell line; read-out: EC50 for RXR γ subtype
RXR β = conditions: CV-1 cell line; read-out: EC50 for RXR β subtype
hRXR [2] = conditions: Caco-2 cells
hRXR [3] = conditions: Caco-2 cells; remark: listed apart in the source

hRXRβ, sequence (P28702 whole entry, canonical isoform): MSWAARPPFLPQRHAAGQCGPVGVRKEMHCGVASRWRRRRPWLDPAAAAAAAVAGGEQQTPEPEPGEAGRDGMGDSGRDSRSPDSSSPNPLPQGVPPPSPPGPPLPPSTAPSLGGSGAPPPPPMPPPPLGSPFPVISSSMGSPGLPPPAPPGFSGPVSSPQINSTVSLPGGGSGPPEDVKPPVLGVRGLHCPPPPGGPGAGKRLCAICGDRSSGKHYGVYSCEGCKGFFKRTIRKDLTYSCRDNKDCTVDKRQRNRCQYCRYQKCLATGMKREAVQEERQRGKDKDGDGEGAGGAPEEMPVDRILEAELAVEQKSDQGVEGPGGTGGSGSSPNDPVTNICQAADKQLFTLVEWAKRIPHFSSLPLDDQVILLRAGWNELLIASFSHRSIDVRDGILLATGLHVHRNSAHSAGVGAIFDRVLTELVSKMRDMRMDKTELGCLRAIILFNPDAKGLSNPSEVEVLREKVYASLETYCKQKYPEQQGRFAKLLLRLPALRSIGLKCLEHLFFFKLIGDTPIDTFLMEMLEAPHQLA

## C=C(c1ccc(C(=O)O)cc1)c1cc2c(cc1C)C(C)(C)CCC2(C)C [Bexarotene]
[1]
  PD symptoms: marked improvement in the PD symptoms
[1]; rat model of PD
  dopamine cells and natural behavior: restored dopamine cells and natural behavior

## Cc1cc2c(cc1-c1cc(/C=C/C(=O)O)ccc1O)C(C)(C)CCC2(C)C [CD3254, (E)-3-(3-(1,2,3,4-tetrahydro-1,1,4,4,6-pentamethylnaphthylen-7-yl)-4-hydroxyphenyl)acrylic Acid]
hRXRβ
  EC50: ~10 nM

## C=C(c1ccc(C(=O)O)c(F)c1)c1cc2c(cc1C)C(C)(C)CCC2(C)C [Compound 3]
hRXR [2]
  EC50: 43 nM
hRXR [3]
  Kd: 12 nM
